For ten molecules, IC50 results are on record in US10259818B2, “Bicyclic azaheterocyclobenzylamines as PI3K inhibitors” (Incyte Corporation, priority 2012, dated 2019).

What is called IC50 is the concentration that inhibits the measured activity by half. A higher IC50 goes with a need for much substance.

A value given as a limit tells only on which side of the number the result lay.

The assay has as its system SUDHL-6 cell line (diffuse large B cell lymphoma). Kind of assay: SUDHL-6 cell proliferation assay (Example B3). The assay is classed as cell-based. Particulars: SUDHL-6 cells, 3 days, Cell Titer-GLO. How it is done: Example B3: SUDHL-6 Cell Proliferation Assay
SUDHL-6 cell line (diffuse large B cell lymphoma) was purchased from ATCC (Manassas, Va.) and maintained in the culture medium recommended (RPMI and 10% FBS). To measure the anti-proliferation activity of the compounds through ATP quantitation, the SUDHL-6 cells was plated with the culture medium (5000 cells/well/per 200 μl) into 96-well polystyrene clear black tissue culture plate (Greiner-bio-one through VWR, NJ) in the presence or absence of a concentration range of test compounds. After 3 days, Cell Titer-GLO Luminescent (Promega, Madison, Wis.) cell culture agent was added to each well for 10 minutes at room temperature to stabilize the luminescent signal. This determines the number of viable cells in culture based on quantitation of the ATP present, which signals the presence of metabolically active cells. Luminescence was measured with the TopCount 384 (Packard Bioscience through Perkin Elmer, Boston, Mass.). […] IC50 data for the Examples is presented in Table 4 determined by the assay of Example B3.
In general terms: Cellular ATP, detected with luciferase, serves as a proxy for viable cell number.

Under “Homo sapiens, SU-DHL-6, 72 h”, `Cc1nn(C(C)c2cc(Cl)c(F)c3c2OC(C)CN(C2CN(C(=O)OC(C)(C)C)C2)C3)c2ncnc(N)c12` (single isomer, unassigned) [Example 26, tert-Butyl 3-[9-[1-(4-amino-3-methyl-1H-pyrazolo[3,4-d]pyrimidin-1-yl)ethyl]-7-chloro-6-fluoro-2-methyl-2,3-dihydro-1,4-benzoxazepin-4(5H)-yl]azetidine-1-carboxylate] displayed an IC50 of at most 500 nM.
For `Cc1nn(C(C)c2cc(Cl)c(F)c3c2OC[C@H](C)N(S(C)(=O)=O)C3)c2ncnc(N)c12` (single isomer, unassigned) [Example 35], the 50% inhibitory concentration (IC50) (Homo sapiens, SU-DHL-6, 72 h) was at most 500 nM.
On to `Cc1nn(C(C)c2cc(Cl)c(F)c3c2O[C@@H](C)CN(C2CC(C(N)=O)C2)C3)c2ncnc(N)c12` (single isomer, unassigned) [Example 44], for which the concentration for half-maximal inhibition (IC50) (Homo sapiens, SU-DHL-6, 72 h) is at most 500 nM.
The molecule `CC(=O)N1CC(N2Cc3c(C#N)c(Cl)cc(C(C)n4nc(C)c5c(N)ncnc54)c3OC(C)C2)C1` (single isomer, unassigned) [Example 48, 4-(1-Acetylazetidin-3-yl)-9-[1-(4-amino-3-methyl-1H-pyrazolo [3,4-d]pyrimidin-1-yl)ethyl]-7-chloro-2-methyl-2,3,4,5-tetrahydro-1,4-benzoxazepine-6-carbonitrile] yielded an IC50 (Homo sapiens, SU-DHL-6, 72 h) of 500 to 1000 nM.
Molecule `Cc1nn(C(C)c2cc(Cl)c(C#N)c3c2OC(C)CN(C2CN(CC(N)=O)C2)C3)c2ncnc(N)c12` (single isomer, unassigned) [Example 50, 2-{3-[9-[1-(4-Amino-3-methyl-1H-pyrazolo[3,4-d]pyrimidin-1-yl)ethyl]-7-chloro-6-cyano-2-methyl-2,3-dihydro-1,4-benzoxazepin-4(5H)-yl]azetidin-1-yl}acetamide] yielded an IC50 (Homo sapiens, SU-DHL-6, 72 h) of at most 500 nM.
For the molecule `Cc1nn(C(C)c2cc(Cl)c(C#N)c3c2OC(C)CN(C2CN(CC(N)=O)C2)C3)c2ncnc(N)c12` (single isomer, unassigned) [Example 53, 2-{3-[9-[1-(4-Amino-3-methyl-1H-pyrazolo[3,4-d]pyrimidin-1-yl)ethyl]-7-chloro-6-cyano-2-methyl-2,3-dihydro-1,4-benzoxazepin-4(5H)-yl]azetidin-1-yl}acetamide], under “Homo sapiens, SU-DHL-6, 72 h”, the half-inhibitory concentration (IC50) was at most 500 nM.
The same measure, in the same setting: next, `Cc1nn(C(C)c2cc(Cl)c(C#N)c3c2OC(C)CN(C2CN(CC(C)(C)O)C2)C3)c2ncnc(N)c12` (single isomer, unassigned) [Example 54, 9-[1-(4-Amino-3-methyl-1H-pyrazolo[3,4-d]pyrimidin-1-yl)ethyl]-7-chloro-4-[1-(2-hydroxy-2-methylpropyl)azetidin-3-yl]-2-methyl-2,3,4,5-tetrahydro-1,4-benzoxazepine-6-carbonitrile]: at most 500 nM.
As for `Cc1nn(C(C)c2cc(Cl)c(C#N)c3c2OC(C)CN(C2CN(CC(C)(C)O)C2)C3)c2ncnc(N)c12` (single isomer, unassigned) [Example 55, 9-[1-(4-Amino-3-methyl-1H-pyrazolo[3,4-d]pyrimidin-1-yl)ethyl]-7-chloro-4-[1-(2-hydroxy-2-methylpropyl)azetidin-3-yl]-2-methyl-2,3,4,5-tetrahydro-1,4-benzoxazepine-6-carbonitrile], the concentration for half-maximal inhibition (IC50) was at most 500 nM.
Where the note is “Homo sapiens, SU-DHL-6, 72 h”, `Cc1nn(C(C)c2cc(Cl)c(C#N)c3c2OC(C)CN(Cc2cccnc2)C3)c2ncnc(N)c12` (single isomer, unassigned) [Example 60, 9-[1-(4-Amino-3-methyl-1H-pyrazolo[3,4-d]pyrimidin-1-yl)ethyl]-7-chloro-2-methyl-4-(pyridin-3-ylmethyl)-2,3,4,5-tetrahydro-1,4-benzoxazepine-6-carbonitrile] gave an IC50 of at most 500 nM.
`Cc1nn(C(C)c2cc(Cl)c(C#N)c3c2OC(C)CN(CC(C)(C)O)C3)c2ncnc(N)c12` (single isomer, unassigned) [Example 65, 9-[1-(4-Amino-3-methyl-1H-pyrazolo[3,4-d]pyrimidin-1-yl)ethyl]-7-chloro-4-(2-hydroxy-2-methylpropyl)-2-methyl-2,3,4,5-tetrahydro-1,4-benzoxazepine-6-carbonitrile]: the IC50 (Homo sapiens, SU-DHL-6, 72 h) is at most 500 nM.
